Experimental data: patent EP1067939B1, “USE OF STEROIDAL ALKALOID DERIVATIVES AS INHIBITORS OF HEDGEHOG PROTEIN SIGNALING PATHWAYS” (The Johns Hopkins University, priority 1998, dated 1999)
Where two headings read alike, the source gives them in different places.

Tests used:
His6Hh-C = target: T1, His6Hh-C (Drosophila melanogaster, UniProt Q02936); test: In vitro Hh autoprocessing reaction with purified components; format: biochemical; conditions: for interference with cholesterol-stimulated autoprocessing: 12 µM cholesterol, 3 hours at 30° C, up to 27-fold excess to cholesterol; for His6Hh-C autocleavage reaction in the presence of compound without sterol: absence of cholesterol, up to 324 µM
T1 construct: made in house

BMP7 = test: Neural plate explant response to BMP7 (migratory HNK-1 positive cells); format: cell-based, chick; conditions: 100 ng/ml BMP7, ventral neural plate explants
Shh = target: T2, Shh (Mus musculus, UniProt Q62226); test: Shh autoprocessing in stably transfected HK293 cells (immunoblot); format: cell-based
T2 construct: expressed in transfected cells; host or cells: HK293 cells, Ecdysone-Inducible Mammalian Expression System (Invitrogen)
Source text: To examine potential effects of these compounds on Shh processing we utilized HK293 cells cultured in lipid-depleted serum and carrying a stable integrated construct for expression of Shh under ecdysone-inducible control (47). Shh protein expression in these cells can be induced by addition of muristerone A, an ecdysone analog.
• 1. M. Hammerschmidt, A. Brook, A. P. McMahon, Trends Genet, 13, 14-21 (1997). • 2. C. Chiang, et al., Nature, 383,407-413 (1996). • 3. Y. Tanabe, T. M. Jessell, Science 274, 1115-1123 (1996). • 4. T. P. Yamaguchi, Curr. Opin. Genet. Dev. 7, 513-518 (1997). • 5. N. Shubin, C. Tabin, S. Carroll, Nature 388, 639-648 (1997). • 6. A. E. Oro, et al., Science 276, 817-821 (1997). • 7. M. M. Cohen, K. K. Sulik, J. Craniofac. Genet. Deve. Biol. 12, 196-244 (1992). • 8. E. Belloni, et al., Nature Genet. 14, 353-356 (1996). • 9. E. Roessler, et al., Nature Genet. 14, 357-360 (1996). • 10. J. A. Porter, et al., Nature 374, 363-366 (1995). • 11. J. A. Porter, K. E. Young, P. A. Beacy, Science 274, 255-259 (1996b). • 12. J. J. Lee, et al., Science 266, 1528-1537 (1994). • 13. J. A. Porter, et al., Cell 86, 21-34 (1996a). • 14. C. Roux, Arch. Franc. Pediatr. 21, 451-464 (1964). • 15. C. Roux, C. R. Soc. Biol. 160, 1353-1357 (1966). • 16. D. B. Dehart, L. Lanoue, G. S. Tinit, K. K. Sulik, Am J. Med. Genet. 68, 328-337 (1997). • 17. M. Kraml, J. F. Bagli, D. Dvornik, Biochem. and Biophysical Res. Com. 15, 455-457 (1964). • 18. J. Avigan, D. Steinberg, H. E. Vroman, M. J. Thompson, E. Mosettig, J. Biol. Chem 235, 3123-3126 (1960). • 19. R. B. Clayton, A. N. Nelson, I. D. Frantz Jr., J. Lipid Res. 4, 166-178 (1963). • 20. J. Aufenanger, J. Pill, K. Stegmeier, F. H. Schmidt, Horm. Metabol. Res. 17, 612-613 (1986). • 21. […] G. Popjak, A. Meenean, E. J. Parish, W. D. Nes, J. Biol. Chem 264,6230-6238 (1989). • 23. H. Yoshikawa, Brain Deve. 13, 115-120 (1991). • 24. R. I. Kelley, et al., Am. J. Of Med. Gen. 66, 478-484 (1996). • 25. G. S. Tint, et al., New England Journal of Medicine 330, 107-113 (1994). • 26. T.E. Willnow, et al., Proc. Natl. Acad. Sci USA 93, 8460-8464 (1996). • 27. S. Stefansson, D. A. Chappell, K. M. Argraves, D. K. Strickland, W. S. Argraves, J. Biol. Chem. 270, 19417-19421 (1995). • 28. W. Binns, L. F. James, J. L. Shupe, G. Everett, Am. J. Vet. Res. 24, 1164-1174 (1963). • 29. R. F. Keeler, W. Binns, Teratology 1, 5-10 (1968). • 30. P. A. Beachy, et al., CSH Symp. Quant. Biol. 62, in press (1997). • 31. E. D. Carstea, et al., Science 277, 228-231 (1997). • 32. S. K. Loftus, et al., Science 277, 232-235 […]. • 33. L. V. Goodrich, L. Milenkovic, K. M. Higgins, M. P. Scott, Science 277, 1109-1113 (1997). • 34. H. Kumagai, K. T. Chun, R. D. Simoni, J. Biol. Chem. 270, 19107-19113 (1995). • 35. G. Gil, J. R. Faust, D. J. Chin, J. L. Goldstien, M. S. Brown, Cell 41, 249-258 (1985). • 36. X. Hua, A. Nohturfft, J. L. Goldstein, M. S. Brown, Cell 87, 415-426 (1996). • 37. M. S. Brown, J. L. Goldstein, Cell 89, 331-340 (1997). • 38. M. M. Bryden, C. Perry, R. F. Keeler, Teratology 8, 18-28 (1973). • 39. M. L. Omnell, F. R. P. Sim, R. F. Keeler, L. C. Harne, K. W. Brown, Teratology 42, 105-119 (1990). • 40. Fertile chick eggs (white leghorn) were placed in a humidified incubator at 37.5° C in a rotating tray for 14 hours. […] The window was taped and the eggs incubated for an additional 4 days. The embryos were dissected in phosphate buffered saline (PBS, pH 7.2).

Shh-N = test: Intermediate neural plate explant response to exogenous Shh-N protein; format: cell-based, chick
rat hepatoma cells = test: Cholesterol Esterification Assay (esterification of plasma membrane cholesterol); format: cell-based
Source text: Table 1. […] Table 1. Effects of synthetic and plant-derived compounds on cholesterol homeostasis. […]

[1] = read-out: Percent Inhibition (incorporation of label into cholesteryl ester*) ^3H-Cholesterol
[2] = read-out: Percent Inhibition (incorporation of label into cholesteryl ester*) ^14C-Oleic Acid

T1 sequence (Q02936 252-471): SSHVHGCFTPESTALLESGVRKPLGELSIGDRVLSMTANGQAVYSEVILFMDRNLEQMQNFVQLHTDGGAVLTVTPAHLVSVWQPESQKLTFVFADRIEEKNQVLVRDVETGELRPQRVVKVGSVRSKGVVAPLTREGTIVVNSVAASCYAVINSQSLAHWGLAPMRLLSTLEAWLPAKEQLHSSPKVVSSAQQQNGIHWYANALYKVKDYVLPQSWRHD
T2 sequence (Q62226 25-437): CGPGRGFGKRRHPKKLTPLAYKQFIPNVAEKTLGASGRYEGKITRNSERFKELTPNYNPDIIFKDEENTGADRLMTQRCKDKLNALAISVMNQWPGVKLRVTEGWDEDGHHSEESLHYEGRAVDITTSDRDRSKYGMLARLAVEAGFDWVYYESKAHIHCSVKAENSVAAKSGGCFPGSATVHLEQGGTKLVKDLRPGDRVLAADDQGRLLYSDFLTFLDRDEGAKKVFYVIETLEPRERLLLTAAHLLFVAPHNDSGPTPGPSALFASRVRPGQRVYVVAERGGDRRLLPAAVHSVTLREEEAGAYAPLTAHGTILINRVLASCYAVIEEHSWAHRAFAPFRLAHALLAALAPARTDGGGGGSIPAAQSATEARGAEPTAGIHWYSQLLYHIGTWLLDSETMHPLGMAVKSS

Compound: C[C@H]1CC[C@]2(NC1)O[C@H]1C[C@H]3[C@@H]4CC[C@H]5C[C@@H](O)CC[C@]5(C)[C@H]4CC[C@]3(C)[C@H]1[C@@H]2C [Tomatidine, tomatidine]
- interference with cholesterol-stimulated autoprocessing (His6Hh-C): does not interfere with autoprocessing
- His6Hh-C autocleavage reaction in the presence of compound without sterol (His6Hh-C): does not proceed
- Induction of migratory HNK-1 positive cells by BMP7 (BMP7; 50 µM): not inhibited
- Shh-Np production and accumulation of unprocessed precursor (Shh; added during the 24-hour induction period, doses up to 5-fold higher than those required to completely inhibit Shh signaling): did not diminish Shh-Np production nor induce accumulation of unprocessed precursor
- slower migrating Shh species, signal sequence cleavage (Shh; species ∼ 1.9 kD larger, lanes 10, 11): minor inhibition of signal sequence cleavage
- concentrations producing partial inhibition relative to those required for complete inhibition by jervine and cyclopamine (Shh-N): 100200 fold
- concentration that inhibits the repression of Pax7 expression by 2 nM Shh-N (Shh-N; 2 nM Shh-N, 20 hours): > 50 µM
- effect on HNF3β and Isl-1 induction (Shh-N; 50 µM, 25 nM Shh-N): markedly reduces HNF3β induction and enhances Isl1-1 induction
- effect on HNF3β and Isl-1 expression (Shh-N; Tomatidine at 25 nM (so in the source), 25 nM Shh-N): slight inhibitory effect
- inhibition at 2.5 µM (rat hepatoma cells; 2.5 µM, read-out: Percent Inhibition (incorporation of label into cholesteryl ester*) ^3H-Cholesterol): 31%
- inhibition at 2.5 µM (rat hepatoma cells; 2.5 µM, read-out: Percent Inhibition (incorporation of label into cholesteryl ester*) ^14C-Oleic Acid): 30%
- inhibition at 5 µM (rat hepatoma cells; 5.0 µM, read-out: Percent Inhibition (incorporation of label into cholesteryl ester*) ^3H-Cholesterol): 33%
- inhibition at 5 µM (rat hepatoma cells; 5.0 µM, read-out: Percent Inhibition (incorporation of label into cholesteryl ester*) ^14C-Oleic Acid): 64%
- inhibition at 10 µM (rat hepatoma cells; 10 µM, read-out: Percent Inhibition (incorporation of label into cholesteryl ester*) ^3H-Cholesterol): 39%
- inhibition at 10 µM (rat hepatoma cells; 10 µM, read-out: Percent Inhibition (incorporation of label into cholesteryl ester*) ^14C-Oleic Acid): 52%

Compound: CC1=C2C[C@H]3[C@@H](CC=C4C[C@@H](O)CC[C@@]43C)[C@@H]2CC[C@]12O[C@@H]1C[C@H](C)CN[C@H]1[C@H]2C [Cyclopamine, cyclopamine]
- interference with cholesterol-stimulated autoprocessing (His6Hh-C): does not interfere with autoprocessing
- His6Hh-C autocleavage reaction in the presence of compound without sterol (His6Hh-C): does not proceed
- Induction of migratory HNK-1 positive cells by BMP7 (BMP7; 10 µM): not inhibited
- Shh-Np production and accumulation of unprocessed precursor (Shh): did not diminish Shh-Np production nor induce accumulation of unprocessed precursor
- concentration that inhibits the repression of Pax7 expression by 2 nM Shh-N (Shh-N): 0.0625 µM
- doses at which HNF3β and Isl-1 induction are completely blocked (Shh-N): 0.25 µM
- intermediate levels at which induction of HNF3β is blocked while induction of Isl-1 is maintained or expanded (Shh-N): 0.125 µM
- inhibition at 2.5 µM (rat hepatoma cells; [1]): 48%
- inhibition at 5 µM (rat hepatoma cells; [1]): 67%
- inhibition at 10 µM (rat hepatoma cells; [1]): 79%
- inhibition at 2.5 µM (rat hepatoma cells; [2]): 45%
- inhibition at 5 µM (rat hepatoma cells; [2]): 62%
- inhibition at 10 µM (rat hepatoma cells; [2]): 74%
